Experimental data reported in publication PMC10108353, “Design and Pharmacological Characterization of α4β1 Integrin Cyclopeptide Agonists: Computational Investigation of Ligand Determinants for Agonism versus Antagonism” (Journal of Medicinal Chemistry, 2023).

Target: α5β1 integrin (Homo sapiens, UniProt P05556+P08648)
Experiment: K562 cell adhesion to FN
Protocol: Cells were seeded in 96-well plates coated with the specific natural human recombinant ligands (Table 1) and allowed to adhere in the presence of increasing concentrations (10^–10 to 10^–4 M) of the synthesized CPPs before the determination of the number of adherent cells (as described in Experimental Section).
For adhesion assays on Jurkat E6.1, RPMI8866, or HL60 cells, black 96-well plates were coated overnight at 4 °C with VCAM-1 or ICAM-1 or MAdCAM-1 (5 μg/mL) or Fg (10 μg/mL). The cells were counted, stained with CellTracker green CMFDA (12.5 μM, 30 min at 37 °C, Life Technologies), and after three washes, were preincubated with increasing concentrations of new CPP (10^–10 to 10^–4 M) or with the vehicle (methanol) for 30 min at 37 °C. […] After three washes, adhered cells were lysed with 0.5% Triton X-100 in PBS (30 min at 4 °C) and fluorescence was measured (Ex485 nm/Em535 nm) in an EnSpire Multimode Plate Reader (PerkinElmer, Waltham, MA). […] K562 cells were counted and preincubated with various concentrations of the peptides or with the vehicle (methanol) for 30 min at RT. […] The wells were then washed with 1% BSA in PBS (phosphate-buffered saline) to take off nonadherent cells, and 50 μL of hexosaminidase substrate was added; after addition of 100 μL of stopping solution, the plates were read at 405 nm. […]

Chain of α5β1 integrin (P08648 42-894 limits assumed): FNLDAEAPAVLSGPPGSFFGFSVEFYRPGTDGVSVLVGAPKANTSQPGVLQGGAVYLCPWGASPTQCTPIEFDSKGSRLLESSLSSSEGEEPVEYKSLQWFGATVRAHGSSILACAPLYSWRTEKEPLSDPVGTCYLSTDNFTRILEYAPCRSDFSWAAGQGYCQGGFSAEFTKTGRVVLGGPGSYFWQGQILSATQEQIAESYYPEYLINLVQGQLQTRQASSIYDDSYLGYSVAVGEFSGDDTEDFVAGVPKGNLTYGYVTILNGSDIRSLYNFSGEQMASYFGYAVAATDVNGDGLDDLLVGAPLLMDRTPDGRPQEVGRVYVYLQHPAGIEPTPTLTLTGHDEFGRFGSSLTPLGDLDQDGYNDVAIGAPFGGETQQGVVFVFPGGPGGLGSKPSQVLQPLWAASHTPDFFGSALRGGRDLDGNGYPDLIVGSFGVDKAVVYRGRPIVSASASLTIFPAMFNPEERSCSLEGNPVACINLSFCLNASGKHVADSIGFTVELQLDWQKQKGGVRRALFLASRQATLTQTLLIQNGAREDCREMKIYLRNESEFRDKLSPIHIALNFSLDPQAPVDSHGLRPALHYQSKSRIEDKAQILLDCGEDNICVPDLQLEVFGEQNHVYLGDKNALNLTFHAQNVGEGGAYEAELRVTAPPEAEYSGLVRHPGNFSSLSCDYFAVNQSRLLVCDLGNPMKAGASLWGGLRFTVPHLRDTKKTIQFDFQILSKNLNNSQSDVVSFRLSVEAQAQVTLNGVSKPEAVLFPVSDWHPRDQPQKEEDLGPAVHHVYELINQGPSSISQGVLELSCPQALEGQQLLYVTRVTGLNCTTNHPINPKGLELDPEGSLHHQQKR
Chain of α5β1 integrin (P08648 895-1049 partner limits assumed): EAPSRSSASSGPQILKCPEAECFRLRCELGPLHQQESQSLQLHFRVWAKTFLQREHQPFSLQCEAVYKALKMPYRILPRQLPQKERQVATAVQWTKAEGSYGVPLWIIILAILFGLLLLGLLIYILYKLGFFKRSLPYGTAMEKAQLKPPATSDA
Chain of α5β1 integrin (P05556 21-798): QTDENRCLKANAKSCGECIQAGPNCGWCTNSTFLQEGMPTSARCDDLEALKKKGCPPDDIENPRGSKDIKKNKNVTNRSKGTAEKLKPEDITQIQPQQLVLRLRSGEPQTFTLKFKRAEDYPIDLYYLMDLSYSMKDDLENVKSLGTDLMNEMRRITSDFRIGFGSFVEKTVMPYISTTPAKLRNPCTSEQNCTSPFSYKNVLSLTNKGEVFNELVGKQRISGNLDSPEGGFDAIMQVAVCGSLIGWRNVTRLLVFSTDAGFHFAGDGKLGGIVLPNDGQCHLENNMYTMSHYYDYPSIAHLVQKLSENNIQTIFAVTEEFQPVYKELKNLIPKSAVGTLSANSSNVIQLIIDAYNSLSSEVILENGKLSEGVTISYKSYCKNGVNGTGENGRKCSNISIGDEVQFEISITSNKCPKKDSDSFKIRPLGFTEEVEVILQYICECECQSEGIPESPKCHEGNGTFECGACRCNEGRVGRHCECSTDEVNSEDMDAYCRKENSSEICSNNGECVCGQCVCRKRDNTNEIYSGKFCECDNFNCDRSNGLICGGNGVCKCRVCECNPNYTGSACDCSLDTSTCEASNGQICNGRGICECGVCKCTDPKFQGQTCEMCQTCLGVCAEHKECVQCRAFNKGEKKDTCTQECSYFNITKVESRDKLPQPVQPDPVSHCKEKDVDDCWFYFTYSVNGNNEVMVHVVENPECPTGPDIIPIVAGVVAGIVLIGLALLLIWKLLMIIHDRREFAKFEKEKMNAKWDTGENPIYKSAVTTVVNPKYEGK

In the case of `Cc1ccccc1NC(=O)N1C(=O)CC1CC(=O)NCC(=O)O` (centres unmarked) [1b], the “agonist or antagonist behaviour, FN/K562 α5β1” value (agonist = adhesion index >1, antagonist = adhesion index <1) is reported as “agonist” and the EC50 (read-out: EC50 for agonists, FN/K562 α5β1, increase of cell adhesion, mean ± SD) is reported as 9.7 ± 0.5 nM.
